Measurements reported in patent publication US11840527B2, “Non-fused thiophene derivatives and their uses” (ENYO PHARMA, priority 2018, dated 2023).

Columns and labels:
Assay in all cases: Stability of Fe-S cluster binding of purified NEET protein (absorbance 458 nm)
Type in all cases: biochemical
[1] = molecular target: T1, CISD3 Gene Product (Miner2) (Homo sapiens, UniProt P0C7P0)
T1 sequence (P0C7P0 15-127): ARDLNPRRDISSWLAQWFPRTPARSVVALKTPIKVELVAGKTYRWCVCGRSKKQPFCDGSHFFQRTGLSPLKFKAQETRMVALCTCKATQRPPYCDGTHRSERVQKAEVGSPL
Method: (§1) The modulator effect on the NEET proteins encoded by human CISD1, CISD2, and CISD3 genes by the compounds of the invention has been tested and is reported below. Particularly, the biochemical function of the NEET proteins is measured by the stability of Fe—S cluster binding of the purified NEET proteins.
(§2) The Fe—S cluster binding capacity of NEET proteins is known to be coordinated by four amino-acids in a stretch of 16 (three Cysteine and one Histidine). As the lability of the Fe—S cluster of NEET proteins is sensitive to the environment, cluster stability measurements are one of the measures of interactions of NEET proteins with small molecules and compounds. NEET protein/2Fe-2S cluster stability can be assessed by monitoring the decay in absorbance of its characteristic 458-nm peak (characteristic of the oxidized 2Fe-2S cluster) over time. Each NEET protein (mitoNEET, NAF-1 and Miner 2) was tested for its Fe—S binding in the absence or presence of a compound according to the invention (see table 3 below). The rate of cluster release (time in minutes to achieve 50% loss of bound Fe—S cluster) was compared for each NEET protein in the presence of one of the compounds of the invention (in a 1:3 protein:compound molar ratio) relative to each protein alone.
(§3) At pH 6, all the three NEET proteins (mitoNEET, NAF-1 and Miner 2) have a characteristic rate of loss of the bound Fe—S cluster that can be measured by the decrease of absorbance at wavelength 458 nm over time, using a spectrophotometer. Thus, Bis-Tris buffer (100 mM Bis-Tris pH6, 100 mM Nacl) was used at pH 6 to dilute either DMSO (Blank sample: Bis-Tris Buffer pH 6, 66 μM DMSO), DMSO and one of the three NEET proteins (Control sample: Bis-Tris Buffer pH 6, 66 μM DMSO, 20 μM purified NEET protein) or DMSO, one of the three NEET proteins and a compound of the invention (Test sample: Bis-Tris Buffer pH 6, 66 μM DMSO, 20 μM purified NEET protein, 60 μM compound of the invention).
(§4) A reaction mix containing DMSO diluted in the Bis-Tris Buffer with or without a compound of the invention was prepared. The purified NEET protein was the last component added to the reaction mix which was then aliquoted into 4 replicates in 96 wells plates. The absorbance at wavelength 458 nm was taken at 5 minutes intervals at 37° C. with a spectrofluorimeter. The assay run time for CISD2 gene product (NAF-1) was 500 minutes and 180 minutes for both the CISD 1 gene product (mitoNEET) and the CISD3 gene product (Miner 2).
(§5) In addition to time monitoring, residual bound Fe—S cluster to NEET protein was measured at the final point of the spectrometry assay for each Test sample and compared to the Control sample data (in parenthesis table 3). This residual binding is measured by the differential percentage between the absorbance 458 nm at time zero and the absorbance 458 nm at the end of the experiment (i.e. respectively 500 or 180 minutes as described hereabove), showing the percentage of NEET protein still able to bind Fe—S cluster.
(§6) Analysis of the absorbance enables the time for which 50% loss of bound Fe—S cluster is reached (i.e. a 50% absorbance decrease at 458 nm) for each Test sample and each Control sample (in parenthesis table 3) to be determined. The data are then compared to determine whether the compound of the invention stabilizes or destabilizes the NEET protein/Fe—S cluster binding.
(§7) Stabilisers of Fe—S cluster binding by the NEET proteins slow the release of bound Fe—S (i.e. increase the time needed to reach 50% Fe—S cluster bound loss by more than 25% for the Test sample compared to the Control sample). As illustrated by table 3, at the concentrations tested, stabilisers of CISD1 Gene Product (mitoNEET) are the compounds #9, #18, #26, #2, #1, and #42. Stabilisers of CISD2 Gene Product (NAF-1) are the compounds #2, #1, and #40. Stabilisers of CISD3 Gene Product (Miner2) are the compounds #9, #18, #26, #2, #1, and #42.

[2] = molecular target: T2, CISD1 Gene Product (mitoNEET) (Homo sapiens, UniProt Q9NZ45)
T2 sequence (Q9NZ45 33-108 limits assumed): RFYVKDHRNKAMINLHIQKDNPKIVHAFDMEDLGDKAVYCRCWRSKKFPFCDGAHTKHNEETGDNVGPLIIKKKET
Method: as §1, §2, §3, §4, §5, §6, §7

[3] = molecular target: T3, CISD2 Gene Product (NAF-1) (Homo sapiens, UniProt Q8N5K1)
T3 sequence (Q8N5K1 57-135 limits assumed): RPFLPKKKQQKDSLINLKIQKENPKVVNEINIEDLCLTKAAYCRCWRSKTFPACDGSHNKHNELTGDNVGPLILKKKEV
Method: as §1, §2, §3, §4, §5, §6, §7

## O=C(Nc1scc(-c2ccc(Cl)c(F)c2)c1C(=O)O)c1ccccc1 [Compound #2, 2-Benzamido-4-(4-chloro-3-fluoro-phenyl)thiophene-3-carboxylic acid]
[1]; CISD3 gene product, at 180 minutes, 60 μM compound, vehicle control (DMSO) 11%
  Residual cluster bound at end of experiment (Percentage Absorbance 458 nm at time zero): 52% (11%)
[1]; Miner2, at the concentrations tested
  Stabiliser of Fe—S cluster binding (time to 50% loss increased by more than 25% vs control): Stabilisers
[1]; Miner2, pH 6, 37° C., 20 μM protein, 60 μM compound, run time 180 minutes, vehicle control 60
  Time (in minutes) to achieve 50% loss of bound cluster (Absorbance 458 nm): during 180 minutes
[2]; at 180 minutes, 60 μM compound, vehicle control 16%
  Residual cluster bound at end of experiment (Percentage Absorbance 458 nm at time zero): 36% (16%)
[2]; at the concentrations tested
  Stabiliser of Fe—S cluster binding (time to 50% loss increased by more than 25% vs control): stabilisers
[2]; pH 6, 37° C., 20 μM protein, 60 μM compound, run time 180 minutes, vehicle control 80
  Time (in minutes) to achieve 50% loss of bound cluster (Absorbance 458 nm): during 180 minutes
[3]; at 500 minutes, 60 μM compound, vehicle control 3%
  Residual cluster bound at end of experiment (Percentage Absorbance 458 nm at time zero): 18% (3%)
[3]; at the concentrations tested
  Stabiliser of Fe—S cluster binding (time to 50% loss increased by more than 25% vs control): Stabilisers
[3]; pH 6, 37° C., 20 μM protein, 60 μM compound, run time 500 minutes, vehicle control 310
  Time (in minutes) to achieve 50% loss of bound cluster (Absorbance 458 nm): during 500 minutes
